According to ChEMBL document CHEMBL3045802, “Synthesis and in vitro antitumor activity of new quinoline, pyrimido[4,5-b]quinoline, [1,2,3]triazino[4,5-b]quinoline, and [1,2,4]triazolo[2,3:3,4]pyrimido[6,5-b]quinoline analogs” (2013):

Key:
Format in all cases: functional
RXF 393 = assay: Cytotoxicity against Homo sapiens (human) RXF393 cells assessed as growth inhibition at 10 uM after 48 hr by coulter counter analysis; conditions: RXF 393, 48 h, read-out: GI
[1] = Cytotoxicity against Homo sapiens (human) NCI-ADR-RES cells assessed as growth inhibition at 10 uM after 48 hr by coulter counter analysis; conditions: read-out: GI
SW-620 = assay: Cytotoxicity against Homo sapiens (human) SW620 cells assessed as growth inhibition at 10 uM after 48 hr by coulter counter analysis; conditions: SW-620, 48 h, read-out: GI
SNB-19 = assay: Cytotoxicity against Homo sapiens (human) SNB19 cells assessed as growth inhibition at 10 uM after 48 hr by coulter counter analysis; conditions: SNB-19, 48 h, read-out: GI
IGROV-1 = assay: Cytotoxicity against Homo sapiens (human) IGROV1 cells assessed as growth inhibition at 10 uM after 48 hr by coulter counter analysis; conditions: IGROV-1, 48 h, read-out: GI
DU-145 = assay: Cytotoxicity against Homo sapiens (human) DU145 cells assessed as growth inhibition at 10 uM after 48 hr by coulter counter analysis; conditions: DU-145, 48 h, read-out: GI
Hs-578T = assay: Cytotoxicity against Homo sapiens (human) Hs578T cells assessed as growth inhibition at 10 uM after 48 hr by coulter counter analysis; conditions: read-out: GI
HCT-116 = assay: Cytotoxicity against Homo sapiens (human) HCT116 cells assessed as growth inhibition at 10 uM after 48 hr by coulter counter analysis; conditions: HCT-116, 48 h, read-out: GI
UACC-257 = assay: Cytotoxicity against Homo sapiens (human) UACC257 cells assessed as growth inhibition at 10 uM after 48 hr by coulter counter analysis; conditions: UACC-257, 48 h, read-out: GI
NCI-H226 = assay: Cytotoxicity against Homo sapiens (human) NCI-H226 cells assessed as growth inhibition at 10 uM after 48 hr by coulter counter analysis; conditions: NCI-H226, 48 h, read-out: GI
A498 = assay: Cytotoxicity against Homo sapiens (human) A498 cells assessed as growth inhibition at 10 uM after 48 hr by coulter counter analysis; conditions: A498, 48 h, read-out: GI
SK-OV-3 = assay: Cytotoxicity against Homo sapiens (human) SKOV3 cells assessed as growth inhibition at 10 uM after 48 hr by coulter counter analysis; conditions: SK-OV-3, 48 h, read-out: GI
EKVX = assay: Cytotoxicity against Homo sapiens (human) EKVX cells assessed as growth inhibition at 10 uM after 48 hr by coulter counter analysis; conditions: read-out: GI
ACHN = assay: Cytotoxicity against Homo sapiens (human) ACHN cells assessed as growth inhibition at 10 uM after 48 hr by coulter counter analysis; conditions: read-out: GI
SK-MEL-2 = assay: Cytotoxicity against Homo sapiens (human) SK-MEL-2 cells assessed as growth inhibition at 10 uM after 48 hr by coulter counter analysis; conditions: SK-MEL-2, 48 h, read-out: GI
TK-10 = assay: Cytotoxicity against Homo sapiens (human) TK10 cells assessed as growth inhibition at 10 uM after 48 hr by coulter counter analysis; conditions: TK-10, 48 h, read-out: GI
MOLT-4 = assay: Cytotoxicity against Homo sapiens (human) MOLT4 cells assessed as growth inhibition at 10 uM after 48 hr by coulter counter analysis; conditions: MOLT-4, 48 h, read-out: GI
KM12 = assay: Cytotoxicity against Homo sapiens (human) KM12 cells assessed as growth inhibition at 10 uM after 48 hr by coulter counter analysis; conditions: KM12, 48 h, read-out: GI
CAKI-1 = assay: Cytotoxicity against Homo sapiens (human) Caki1 cells assessed as growth inhibition at 10 uM after 48 hr by coulter counter analysis; conditions: CAKI-1, 48 h, read-out: GI
NCI-H23 = assay: Cytotoxicity against Homo sapiens (human) NCI-H23 cells assessed as growth inhibition at 10 uM after 48 hr by coulter counter analysis; conditions: NCI-H23, 48 h, read-out: GI
HT-29 = assay: Cytotoxicity against Homo sapiens (human) HT-29 cells assessed as growth inhibition at 10 uM after 48 hr by coulter counter analysis; conditions: HT-29, 48 h, read-out: GI
MDA-MB-231 = assay: Cytotoxicity against Homo sapiens (human) MDA-MB-231 cells assessed as growth inhibition at 10 uM after 48 hr by coulter counter analysis; conditions: MDA-MB-231, 48 h, read-out: GI
SR = assay: Cytotoxicity against Homo sapiens (human) SR cells assessed as growth inhibition at 10 uM after 48 hr by coulter counter analysis; conditions: read-out: GI
SN12C = assay: Cytotoxicity against Homo sapiens (human) SN12C cells assessed as growth inhibition at 10 uM after 48 hr by coulter counter analysis; conditions: read-out: GI
M14 = assay: Cytotoxicity against Homo sapiens (human) M14 cells assessed as growth inhibition at 10 uM after 48 hr by coulter counter analysis; conditions: M14, 48 h, read-out: GI
HCC 2998 = assay: Cytotoxicity against Homo sapiens (human) HCC2998 cells assessed as growth inhibition at 10 uM after 48 hr by coulter counter analysis; conditions: HCC 2998, 48 h, read-out: GI
UO-31 = assay: Cytotoxicity against Homo sapiens (human) UO31 cells assessed as growth inhibition at 10 uM after 48 hr by coulter counter analysis; conditions: UO-31, 48 h, read-out: GI
LOX IMVI = assay: Cytotoxicity against Homo sapiens (human) LOXIMVI cells assessed as growth inhibition at 10 uM after 48 hr by coulter counter analysis; conditions: read-out: GI
HOP-92 = assay: Cytotoxicity against Homo sapiens (human) HOP92 cells assessed as growth inhibition at 10 uM after 48 hr by coulter counter analysis; conditions: HOP-92, 48 h, read-out: GI
OVCAR-8 = assay: Cytotoxicity against Homo sapiens (human) OVCAR8 cells assessed as growth inhibition at 10 uM after 48 hr by coulter counter analysis; conditions: OVCAR-8, 48 h, read-out: GI
A549 = assay: Cytotoxicity against Homo sapiens (human) A549 cells assessed as growth inhibition at 10 uM after 48 hr by coulter counter analysis; conditions: A549, 48 h, read-out: GI
Malme-3M = assay: Cytotoxicity against Homo sapiens (human) MALME-3M cells assessed as growth inhibition at 10 uM after 48 hr by coulter counter analysis; conditions: read-out: GI
OVCAR-4 = assay: Cytotoxicity against Homo sapiens (human) OVCAR4 cells assessed as growth inhibition at 10 uM after 48 hr by coulter counter analysis; conditions: OVCAR-4, 48 h, read-out: GI
SK-MEL-28 = assay: Cytotoxicity against Homo sapiens (human) SK-MEL-28 cells assessed as growth inhibition at 10 uM after 48 hr by coulter counter analysis; conditions: SK-MEL-28, 48 h, read-out: GI
SF-268 = assay: Cytotoxicity against Homo sapiens (human) SF268 cells assessed as growth inhibition at 10 uM after 48 hr by coulter counter analysis; conditions: SF-268, 48 h, read-out: GI

| Structure (SMILES) | inhibition of growth at 10 µM (RXF 393) [%] | inhibition of growth at 10 µM [1] [%] | inhibition of growth at 10 µM (SW-620) [%] | inhibition of growth at 10 µM (SNB-19) [%] | inhibition of growth at 10 µM (IGROV-1) [%] | inhibition of growth at 10 µM (DU-145) [%] | inhibition of growth at 10 µM (Hs-578T) [%] | inhibition of growth at 10 µM (HCT-116) [%] | inhibition of growth at 10 µM (UACC-257) [%] | inhibition of growth at 10 µM (NCI-H226) [%] | inhibition of growth at 10 µM (A498) [%] | inhibition of growth at 10 µM (SK-OV-3) [%] | inhibition of growth at 10 µM (EKVX) [%] | inhibition of growth at 10 µM (ACHN) [%] | inhibition of growth at 10 µM (SK-MEL-2) [%] | inhibition of growth at 10 µM (TK-10) [%] | inhibition of growth at 10 µM (MOLT-4) [%] | inhibition of growth at 10 µM (KM12) [%] | inhibition of growth at 10 µM (CAKI-1) [%] | inhibition of growth at 10 µM (NCI-H23) [%] | further results |
| --- | --- | --- | --- | --- | --- | --- | --- | --- | --- | --- | --- | --- | --- | --- | --- | --- | --- | --- | --- | --- | --- |
| N#CCc1nc2c(c(=O)[nH]1)C(c1ccc(Cl)cc1)C1=C(CCCC1)N2 (stereo not given) | < 10 | < 10 | < 10 | < 10 | < 10 | < 10 | < 10 | < 10 | < 10 | < 10 | 13 | < 10 | 13 | 13.8 | 10 | < 10 | < 10 | < 10 | < 10 | 12.1 | inhibition of growth at 10 µM (HT-29): < 10%; inhibition of growth at 10 µM (MDA-MB-231): < 10%; inhibition of growth at 10 µM (SR): < 10%; inhibition of growth at 10 µM (SN12C): 15.5%; inhibition of growth at 10 µM (M14): < 10%; inhibition of growth at 10 µM (HCC 2998): < 10%; inhibition of growth at 10 µM (UO-31): 37.7%; inhibition of growth at 10 µM (LOX IMVI): < 10%; inhibition of growth at 10 µM (HOP-92): 11.2%; inhibition of growth at 10 µM (OVCAR-8): < 10%; inhibition of growth at 10 µM (A549): < 10%; inhibition of growth at 10 µM (Malme-3M): < 10%; inhibition of growth at 10 µM (OVCAR-4): < 10%; inhibition of growth at 10 µM (SK-MEL-28): < 10%; inhibition of growth at 10 µM (SF-268): < 10% |
| COc1ccc(C2C3=C(CCCC3)Nc3nc(CC#N)[nH]c(=O)c32)cc1OC (stereo not given) | < 10 | < 10 | < 10 | < 10 | < 10 | < 10 | < 10 | < 10 | < 10 | 11.3 | < 10 | < 10 | < 10 | < 10 | < 10 | < 10 | < 10 | < 10 | < 10 | < 10 | inhibition of growth at 10 µM (HT-29): < 10%; inhibition of growth at 10 µM (MDA-MB-231): < 10%; inhibition of growth at 10 µM (SR): < 10%; inhibition of growth at 10 µM (SN12C): < 10%; inhibition of growth at 10 µM (M14): < 10%; inhibition of growth at 10 µM (HCC 2998): < 10%; inhibition of growth at 10 µM (UO-31): 26.9%; inhibition of growth at 10 µM (LOX IMVI): < 10%; inhibition of growth at 10 µM (HOP-92): < 10%; inhibition of growth at 10 µM (OVCAR-8): < 10%; inhibition of growth at 10 µM (A549): < 10%; inhibition of growth at 10 µM (Malme-3M): < 10%; inhibition of growth at 10 µM (OVCAR-4): < 10%; inhibition of growth at 10 µM (SK-MEL-28): < 10%; inhibition of growth at 10 µM (SF-268): < 10% |
| O=c1[nH]c(-c2ccccc2)nc2c1C(c1ccc(Cl)cc1)C1=C(CCCC1)N2 (stereo not given) | < 10 | < 10 | < 10 | < 10 | < 10 | < 10 | < 10 | < 10 | < 10 | 12.3 | 11.4 | < 10 | < 10 | < 10 | < 10 | < 10 | 13.6 | < 10 | < 10 | < 10 | inhibition of growth at 10 µM (HT-29): < 10%; inhibition of growth at 10 µM (MDA-MB-231): < 10%; inhibition of growth at 10 µM (SR): < 10%; inhibition of growth at 10 µM (SN12C): < 10%; inhibition of growth at 10 µM (M14): < 10%; inhibition of growth at 10 µM (HCC 2998): < 10%; inhibition of growth at 10 µM (UO-31): 43.3%; inhibition of growth at 10 µM (LOX IMVI): 11.2%; inhibition of growth at 10 µM (HOP-92): 12%; inhibition of growth at 10 µM (OVCAR-8): < 10%; inhibition of growth at 10 µM (A549): < 10%; inhibition of growth at 10 µM (Malme-3M): < 10%; inhibition of growth at 10 µM (OVCAR-4): < 10%; inhibition of growth at 10 µM (SK-MEL-28): < 10%; inhibition of growth at 10 µM (SF-268): < 10% |
| CN(C)c1ccc(-c2nc3c(c(=O)[nH]2)C(c2ccc(Cl)cc2)C2=C(CCCC2)N3)cc1 (stereo not given) | < 10 | < 10 | < 10 | < 10 | < 10 | < 10 | < 10 | < 10 | < 10 | < 10 | < 10 | < 10 | < 10 | 13.1 | 10 | < 10 | < 10 | < 10 | < 10 | 12.4 | inhibition of growth at 10 µM (HT-29): < 10%; inhibition of growth at 10 µM (MDA-MB-231): 12%; inhibition of growth at 10 µM (SR): < 10%; inhibition of growth at 10 µM (SN12C): 14.6%; inhibition of growth at 10 µM (M14): < 10%; inhibition of growth at 10 µM (HCC 2998): < 10%; inhibition of growth at 10 µM (UO-31): 47.4%; inhibition of growth at 10 µM (LOX IMVI): < 10%; inhibition of growth at 10 µM (HOP-92): 35.9%; inhibition of growth at 10 µM (OVCAR-8): < 10%; inhibition of growth at 10 µM (A549): < 10%; inhibition of growth at 10 µM (Malme-3M): < 10%; inhibition of growth at 10 µM (OVCAR-4): < 10%; inhibition of growth at 10 µM (SK-MEL-28): < 10%; inhibition of growth at 10 µM (SF-268): < 10% |
